We go through twelve compounds from patent publication US9198420B2, “Rodenticidal norbormide analogues” (priority 2012, dated 2015).

Structures are written as SMILES. Read-outs that look alike come from different tables or passages of the source.

For one series, the system named is rat caudal artery. Kind of series: Rat caudal artery ring contractile force (vasoconstrictory activity). On the set-up: species or system rat (male Wistar). Here is the method:
Male Wistar rats (150-250 g) were obtained from Charles River Italia (Milano, Italy) and killed by decapitation. Ventral caudal artery was isolated, placed in Tyrode solution at room temperature and cleaned of extraneous fatty and connective tissue under a dissection microscope. All vessels were cut into rings 2 mm long, mounted on a custom-built plexiglass support by means of two intraluminal tungsten wires and placed in 20 mL double-jacketed organ baths filled with Tyrode solution of the following composition (mM): NaCl 125, KCl 5, CaCl2 2.7, MgSO4 1, KH2PO4 1.2, NaHCO3 25 and glucose 11, maintained at 37° C., pH 7.35, bubbled with 95% O2 and […]. The endothelium was removed by gently rubbing the lumen of the rings with a very thin rough-surfaced tungsten wire (caudal artery). The mechanical activity of the rings was detected by means of an isometric force transducer (Ugo Basile, Comerio, Italy) coupled to a pen recorder (Ugo Basile, Comerio, Italy). Rings were passively stretched to impose a resting tension (2 g) and were allowed to equilibrate for 60 min. After equilibration, each ring was repeatedly simulated with both KCl (90 mM) and phenylephrine (10 μM) until reproducible responses were obtained. To verify the absence of the endothelium, rings contracted with 1 μM phenylephrine were exposed to […] carbamylcholine. […] Each compound was tested for the vasoconstrictor activity at a concentration of 50 μM, which has been previously reported to be the one evoking the maximal response to norbormide. The contractile responses to the compounds were expressed as percent of the 90 mM KCl response.

Another series has as its system Sprague Dawley rats. The series can be described thus: In vivo lethality, oral gavage. Also on record: species or system rat (Sprague Dawley). To be noted: rat, n = 2. Here is the method: Sprague Dawley rats (150-200 g) were used to appraise the rodenticidal activity of the compounds put forward for in vivo evaluation. Briefly, prior to administration the compounds were dissolved in 0.2 M hydrochloric acid (5% DMSO overall), to the desired dose, and without delay either injected intravenously, via the tail, or orally gavaged. All treated animals were housed in a quiet room and monitored every minute (i.v) or every 15 min (oral) to verify early signs of toxicity.

Series [1] is described as follows: Rat serum assay (release of NRB or NRB analogue). The format is in vitro ADME. The settings on record: 80% rat serum, 37° C., 3 h, n = 3. Here is the method: The hydrolytic stability of compounds of the invention in rat blood was evaluated using in vitro rat serum obtained from Sigma-Aldrich and stored at −78° C. Similar assay conditions to those reported by Li Di and co-workers (Int. J. Pharm. 2005, 297, 110-119) were followed [200 μL total volume, 80% rat serum (diluting with phosphate buffer (0.1 M, pH 7.4)), at a final compound concentration of 200 μM, 2.5% DMSO overall, 37° C., 3 h, n=3] using an Eppendorf Thermomixer Compact. Reactions were quenched by transferring 150 μL of the incubation mixture to 450 μL of ice-cold acetonitrile, affording a final compound/NRB or NRB analogue concentration of 50 μM. Samples were centrifuged at 14,500×g for 15 min using an Eppendorf Mini Spin Plus centrifuge, at ambient temperature. 400 μL of the supernatant was removed and transferred to clean tubes. Analysis was by RP-LCMS at an injection volume of 20 μL. Each compound and corresponding NRB or NRB analogue were subjected to external calibration curves at 50 μM, 100 μM and 200 μM to allow conversion of absorbance unit area into nmol, from which the percentage of NRB or NRB analogue released from each compound was calculated.

Series [2] is described as follows: Simulated gastric fluid (SGF) hydrolytic stability assay. Type of series: physicochemical. The settings on record: simulated gastric fluid without pepsin, pH 1.2, 37° C., 1 h, n = 3. How it is done:
All in vivo candidates were subjected to a 1 h hydrolytic stability appraisal in the presence of SGF, without pepsin (United States Pharmacopoeia 24) [200 μL total volume, sodium chloride solution (0.03 M) acidified to pH 1.2 with concentrated hydrochloric acid, at a final compound concentration of 200 μM, 2.5% DMSO overall, 37° C., n=3], to investigate any potential chemical instabilities that may occur in the acidic environment of the stomach prior to uptake. Analysis was by RP-LCMS at an injection volume of 5 μL.

The mark [3] stands for this setting: Table 1, read-out: Vasoconstriction: maximum contractile effect as a % of 90 mM KCl contraction.
The mark [4] stands for this setting: Table 5, compounds of formula (III).
[5] abbreviates: Table 3, read-out: Vasoconstriction: maximum contractile effect as a % of 90 mM KCl contraction.

With `O=C(OCN1C(=O)C2C3C=C(C(O)(c4ccccc4)c4ccccn4)C(C3=C(c3ccccc3)c3ccccn3)C2C1=O)C(c1ccccc1)c1ccccc1` (stereo not drawn) [Compound 17, N-Diphenylacetyloxymethyl-5-(α-hydroxy-α-2-pyridylbenzyl)-7-(α-2-pyridylbenzylidene)-5-norbornene-2,3-dicarboximide], the Emax in the series with rat caudal artery (setting [3]) was 0%. Moreover, in the series with rat caudal artery (Table 4, pre-cleavage, n = 3), the “Vasoconstriction: maximum contractile effect as a % of 90 mM KCl contraction” value came out at 0%. Moreover, in the series on Sprague Dawley rats (40 mg/Kg), the “In vivo lethality (oral)” value was “no^h”.
In the case of `O=C(CCC(=O)OCN1C(=O)C2C3C=C(C(O)(c4ccccc4)c4ccccn4)C(C3=C(c3ccccc3)c3ccccn3)C2C1=O)OCN1C(=O)C2C3C=C(C(O)(c4ccccc4)c4ccccn4)C(C3=C(c3ccccc3)c3ccccn3)C2C1=O` (stereo not drawn) [Compound 21, 5-(α-Hydroxy-α-2-pyridylbenzyl)-7-(α-2-pyridylbenzylidene)-N-succinoyloxymethyl-5-norbornene-2,3-dicarboximide dimer], the “% NRB released, Rat Serum” value in series [1] turned out to be 29.6 ± 5.4%. Further, in series [2], the “% NRB released, Hydrolytic Stability” value is 0%. For the same compound, the “Vasoconstriction: maximum contractile effect as a % of 90 mM KCl contraction” value stood at 0% in the series on rat caudal artery (setting [4]) and 0% in the series with rat caudal artery (n = 3, pre-cleavage, Table 6).
Regarding `O=C(CCCCC(=O)OCN1C(=O)C2C3C=C(C(O)(c4ccccc4)c4ccccn4)C(C3=C(c3ccccc3)c3ccccn3)C2C1=O)OCN1C(=O)C2C3C=C(C(O)(c4ccccc4)c4ccccn4)C(C3=C(c3ccccc3)c3ccccn3)C2C1=O` (stereo not drawn) [Compound 22, N-Adipoyloxymethyl-5-(α-hydroxy-α-2-pyridylbenzyl)-7-(α-2-pyridylbenzylidene)-5-norbornene-2,3-dicarboximide dimer], the “% NRB released, Rat Serum” value in series [1] was found to be 13.4 ± 0.2%. Further, in series [2], the “% NRB released, Hydrolytic Stability” value is given as 0%. Moreover, the “Vasoconstriction: maximum contractile effect as a % of 90 mM KCl contraction” value was found to be 0% with rat caudal artery (setting [4]) and 0% with rat caudal artery (n = 3, pre-cleavage, Table 6).
Turning to `O=C(CCCCCCC(=O)OCN1C(=O)C2C3C=C(C(O)(c4ccccc4)c4ccccn4)C(C3=C(c3ccccc3)c3ccccn3)C2C1=O)OCN1C(=O)C2C3C=C(C(O)(c4ccccc4)c4ccccn4)C(C3=C(c3ccccc3)c3ccccn3)C2C1=O` (stereo not drawn) [Compound 23, 5-(α-Hydroxy-α-2-pyridylbenzyl)-7-(α-2-pyridylbenzylidene)-N-suberoyloxymethyl-5-norbornene-2,3-dicarboximide dimer], in series [1], the “% NRB released, Rat Serum” value is on record as 14.9 ± 5.0%. Moreover, the “% NRB released, Hydrolytic Stability” value in series [2] was 0%. Also, the “Vasoconstriction: maximum contractile effect as a % of 90 mM KCl contraction” value in the series with rat caudal artery (setting [4]) is given as 0%; in the series with rat caudal artery (n = 3, pre-cleavage, Table 6), 0%.
Turning to `CS(=O)(=O)c1ccc(C=CC(=O)OCCN2C(=O)C3C4C=C(C(O)(c5ccccc5)c5ccccn5)C(C4=C(c4ccccc4)c4ccccn4)C3C2=O)cc1` (stereo not drawn) [Compound 329, 5-(α-Hydroxy-α-2-pyridylbenzyl)-N-[2′-(4″-methylsulfonylcinnamoyloxy)ethyl]-7-(α-2-pyridylbenzylidene)-5-norbornene-2,3-dicarboximide], in the series on rat caudal artery (setting [3]), the Emax came to 88%. Further, in the series on rat caudal artery (Table 4, pre-cleavage, n = 3), the “Vasoconstriction: maximum contractile effect as a % of 90 mM KCl contraction” value is listed as 88%. Also, the “In vivo lethality (oral)” value in the series on Sprague Dawley rats (40 mg/Kg) was “yes^h”.
As to `CC(=O)Nc1ccc(C=CC(=O)OCCN2C(=O)C3C4C=C(C(O)(c5ccccc5)c5ccccn5)C(C4=C(c4ccccc4)c4ccccn4)C3C2=O)cc1` (stereo not drawn) [Compound 337, N-[2′-(4″-Acetamidocinnamoyloxy)ethyl]-5-(α-hydroxy-α-2-pyridylbenzyl)-7-(α-2-pyridylbenzylidene)-5-norbornene-2,3-dicarboximide], in the series on rat caudal artery (setting [3]), the Emax was determined as 97%. For the same compound, the “Vasoconstriction: maximum contractile effect as a % of 90 mM KCl contraction” value with rat caudal artery (Table 4, pre-cleavage, n = 3) is listed as 97%. The “In vivo lethality (oral)” value in the series with Sprague Dawley rats (40 mg/Kg) is listed as “yes^h”.
In the case of `COC(=O)C(N)CC(=O)OCCN1C(=O)C2C3C=C(C(O)(c4ccccc4)c4ccccn4)C(C3=C(c3ccccc3)c3ccccn3)C2C1=O.O=C(O)C(F)(F)F` (stereo not drawn) [Compound 343, 5-(α-Hydroxy-α-2-pyridylbenzyl)-N-[2′-(α-methylaspartoyloxy)ethyl]-7-(α-2-pyridylbenzylidene)-5-norbornene-2,3-dicarboximide trifluoroacetate], the “Vasoconstriction: maximum contractile effect as a % of 90 mM KCl contraction” value in the series with rat caudal artery (Table 1, compound at 50 μM) is 140%; with rat caudal artery (Table 4, pre-cleavage, n = 3) it was 149%. The “In vivo lethality (oral)” value in the series with Sprague Dawley rats (20 mg/Kg) and in the series with Sprague Dawley rats (40 mg/Kg) was “yes^h,i” throughout.
As to `COc1ccc(C=CC(=O)NCCN2C(=O)C3C4C=C(C(O)(c5ccccc5)c5ccccn5)C(C4=C(c4ccccc4)c4ccccn4)C3C2=O)cc1` (stereo not drawn) [Compound 361, 5-(α-Hydroxy-α-2-pyridylbenzyl)-N-[2′-(4″-methoxycinnamamido)ethyl]-7-(α-2-pyridylbenzylidene)-5-norbornene-2,3-dicarboximide], in the series on rat caudal artery (Table 2, read-out: Vasoconstriction: maximum contractile effect as a % of 90 mM KCl contraction), the Emax stood at 21%. The “Vasoconstriction: maximum contractile effect as a % of 90 mM KCl contraction” value in the series with rat caudal artery (Table 4, pre-cleavage, n = 3) is reported as 21%. Also, the “In vivo lethality (oral)” value in the series with Sprague Dawley rats (20 mg/Kg) and in the series with Sprague Dawley rats (40 mg/Kg) was “yes^h,i” in each case.
As to `CCCCCCCC(=O)NCCN1C(=O)C2C3C=C(C(O)(c4ccccc4)c4ccccn4)C(C3=C(c3ccccc3)c3ccccn3)C2C1=O` (stereo not drawn) [Compound 364, 5-(α-Hydroxy-α-2-pyridylbenzyl)-N-2′-octanamidoethyl-7-(α-2-pyridylbenzylidene)-5-norbornene-2,3-dicarboximide], the “Vasoconstriction: maximum contractile effect as a % of 90 mM KCl contraction” value worked out at 21% with rat caudal artery (Table 2, compound at 50 μM) and 21% in the series with rat caudal artery (Table 4, pre-cleavage, n = 3). For the same compound, the “In vivo lethality (oral)” value in the series on Sprague Dawley rats (20 mg/Kg) and in the series with Sprague Dawley rats (40 mg/Kg) was “yes^h,i” in each case.
Consider `O=C(C=Cc1ccccc1)NCCN1C(=O)C2C3C=C(C(O)(c4ccccc4)c4ccccn4)C(C3=C(c3ccccc3)c3ccccn3)C2C1=O` (stereo not drawn) [Compound 365, N-2′-Cinnamamidoethyl-5-(α-hydroxy-α-2-pyridylbenzyl)-7-(α-2-pyridylbenzylidene)-5-norbornene-2,3-dicarboximide], for which the “Vasoconstriction: maximum contractile effect as a % of 90 mM KCl contraction” value in the series on rat caudal artery (Table 2, compound at 50 μM) amounted to 43%.
Take `CCCCCCCCOC(=O)CN1C(=O)C2C3C=C(C(O)(c4ccccc4)c4ccccn4)C(C3=C(c3ccccc3)c3ccccn3)C2C1=O` (stereo not drawn) [Compound 369, 5-(α-Hydroxy-α-2-pyridylbenzyl)-N-octyloxycarbonylmethyl-7-(α-2-pyridylbenzylidene)-5-norbornene-2,3-dicarboximide]: the Emax in the series on rat caudal artery (setting [5]) was 0%. For the same compound, in the series with rat caudal artery (Table 4, pre-cleavage, n = 3), the “Vasoconstriction: maximum contractile effect as a % of 90 mM KCl contraction” value was 0%. Besides, in the series on Sprague Dawley rats (40 mg/Kg), the “In vivo lethality (oral)” value is listed as “no^h”.
Consider `O=C(CN1C(=O)C2C3C=C(C(O)(c4ccccc4)c4ccccn4)C(C3=C(c3ccccc3)c3ccccn3)C2C1=O)OCC=Cc1ccccc1` (stereo not drawn) [Compound 371, N-Cinnamoxycarbonylmethyl-5-(α-hydroxy-α-2-pyridylbenzyl)-7-(α-2-pyridylbenzylidene)-5-norbornene-2,3-dicarboximide], for which the Emax in the series with rat caudal artery (setting [5]) worked out at 0%. Further, the “Vasoconstriction: maximum contractile effect as a % of 90 mM KCl contraction” value in the series with rat caudal artery (Table 4, pre-cleavage, n = 3) is on record as 0%. Also, the “In vivo lethality (oral)” value with Sprague Dawley rats (40 mg/Kg) is recorded as “no^h”.
